Test results taken from Sander's compilation of Henry's law constants (doi:10.1021/je3010535).

Test: Henry solubility constant Hcp at 298.15 K (mol/(m3 Pa))
Conditions: reference: Hiatt (2013)

Row | Compound | Henry solubility constant Hcp
1 | ClCC(Cl)(Cl)Cl [1,1,1,2-tetrachloroethane] | 0.0048
2 | CC(Cl)(Cl)Cl [1,1,1-trichloroethane] | 0.00069
3 | ClC(Cl)C(Cl)Cl [1,1,2,2-tetrachloroethane] | 0.033
4 | [2H]C([2H])(Cl)C([2H])(Cl)Cl [1,1,2-trichloroethane-d3] | 0.013
5 | ClCC(Cl)Cl [1,1,2-trichloroethane] | 0.014
6 | C=C(Cl)Cl [1,1-dichloroethene] | 0.00041
7 | CC=C(Cl)Cl [1,1-dichloropropene] | 0.00061
8 | [2H]c1c([2H])c(Cl)c(Cl)c(Cl)c1[2H] [1,2,3-trichlorobenzene-d3] | 0.015
9 | Clc1cccc(Cl)c1Cl [1,2,3-trichlorobenzene] | 0.015
10 | ClCC(Cl)CCl [1,2,3-trichloropropane] | 0.042
11 | Cc1ccc(C)c(C)c1 [1,2,4-trimethylbenzene] | 0.0032
12 | ClCC(Br)CBr (centres undefined) [1,2-dibromo-3-chloropropane] | 0.097
13 | [2H]C([2H])([2H])C([2H])(Cl)C([2H])([2H])Cl (centres undefined) [1,2-dichloropropane-d6] | 0.0036
14 | CC(Cl)CCl (centres undefined) [1,2-dichloropropane] | 0.0043
15 | [2H]c1c([2H])c([2H])c(C([2H])([2H])[2H])c(C([2H])([2H])[2H])c1[2H] [1,2-dimethylbenzene-d10] | 0.003
16 | Cc1ccccc1C [1,2-dimethylbenzene] | 0.0032
17 | Cc1cc(C)cc(C)c1 [1,3,5-trimethylbenzene] | 0.0023
18 | Clc1cccc(Cl)c1 [1,3-dichlorobenzene] | 0.0052
19 | ClCCCCl [1,3-dichloropropane] | 0.013
20 | Clc1ccc(Cl)cc1 [1,4-dichlorobenzene] | 0.0058
21 | Fc1ccc(Br)cc1 [1-bromo-4-fluorobenzene] | 0.0053
22 | Cc1ccc(Cl)cc1 [1-chloro-4-methylbenzene] | 0.0041
23 | Cc1ccc(C(C)C)cc1 [1-methyl-4-(1-methylethyl)-benzene] | 0.0018
24 | [2H]c1c([2H])c([2H])c2c(C([2H])([2H])[2H])c([2H])c([2H])c([2H])c2c1[2H] [1-methylnaphthalene-d10] | 0.046
25 | Cc1cccc2ccccc12 [1-methylnaphthalene] | 0.044

Row | Compound | Henry solubility constant Hcp
26 | [2H]c1c([2H])c([2H])c(C(C)=O)c([2H])c1[2H] [1-phenylethanone-d5] | 2.3
27 | CC(=O)c1ccccc1 [1-phenylethanone] | 0.97
28 | CC(C)(Cl)Cl [2,2-dichloropropane] | 0.00044
29 | [2H]C([2H])(O)C([2H])([2H])Cl [2-chloroethanol-d4] | 5
30 | [2H]C([2H])([2H])C(=O)C([2H])([2H])CCC [2-hexanone-1,1,1,3,3-d5] | 0.17
31 | CCCCC(C)=O [2-hexanone] | 0.15
32 | COCCO [2-methoxyethanol] | 4.4
33 | CCCCC(C)CO (centres undefined) [2-methyl-1-hexanol] | 0.69
34 | Cc1ccc2ccccc2c1 [2-methylnaphthalene] | 0.035
35 | CC(C)O [2-propanol] | 1.1
36 | C=CC#N [2-propenenitrile] | 0.12
37 | Cc1cc(C(C)(C)C)cc(C(C)(C)C)c1 [3,5-di-tert-butyltoluene] | 0.0037
38 | Cc1cc(Br)cc(Br)c1 [3,5-dibromotoluene] | 0.017
39 | C=CCCl [3-chloro-1-propene] | 0.0013
40 | CC(=O)CC(C)C [4-methyl-2-pentanone] | 0.1
41 | CC(C)(C)c1ccccc1 [(1,1-dimethylethyl)-benzene] | 0.0016
42 | CCC(C)c1ccccc1 (centres undefined) [(1-methylpropyl)-benzene] | 0.0013
43 | CC(C)c1ccccc1 [(2-propyl)-benzene] | 0.0014
44 | ClC/C=C/CCl [(E)-1,4-dichloro-2-butene] | 0.035
45 | ClC/C=C\CCl [(Z)-1,4-dichloro-2-butene] | 0.03
46 | ClCc1ccccc1 [(chloromethyl)-benzene] | 0.02
47 | [2H]c1c([2H])c([2H])c([2H])c([2H])c1[2H] [benzene-d6] | 0.0018
48 | c1ccccc1 [benzene] | 0.0018
49 | [2H]c1c([2H])c([2H])c(Br)c([2H])c1[2H] [bromobenzene-d5] | 0.0065
50 | Brc1ccccc1 [bromobenzene] | 0.006

Row | Compound | Henry solubility constant Hcp
51 | ClCBr [bromochloromethane] | 0.0066
52 | ClC(Cl)Br [bromodichloromethane] | 0.0052
53 | CBr [bromomethane] | 0.0013
54 | CCCCc1ccccc1 [butylbenzene] | 0.002
55 | S=C=S [carbon disulfide] | 0.00057
56 | [2H]c1c([2H])c([2H])c(Cl)c([2H])c1[2H] [chlorobenzene-d5] | 0.0036
57 | Clc1ccccc1 [chlorobenzene] | 0.0037
58 | CCCl [chloroethane] | 0.00085
59 | [2H]C([2H])=C([2H])Cl [chloroethene-d3] | 0.00038
60 | C=CCl [chloroethene] | 0.00039
61 | Cl/C=C\CCl [cis-1,3-dichloropropene] | 0.0095
62 | C1CCCCC1 [cyclohexane] | 0.00032
63 | Fc1c(F)c(F)c(-c2c(F)c(F)c(F)c(F)c2F)c(F)c1F [decafluorobiphenyl] | 0.0067
64 | ClC(Br)Br [dibromochloromethane] | 0.011
65 | BrCBr [dibromomethane] | 0.012
66 | FC(F)(Cl)Cl [dichlorodifluoromethane] | 0.00013
67 | [2H]C([2H])(Cl)Cl [dichloromethane-d2] | 0.0038
68 | ClCCl [dichloromethane] | 0.004
69 | [2H]C([2H])([2H])C([2H])([2H])OC([2H])([2H])C([2H])([2H])[2H] [diethyl ether-d10] | 0.013
70 | CCOCC [diethyl ether] | 0.011
71 | CC#N [ethanenitrile] | 0.6
72 | C=Cc1ccccc1 [ethenylbenzene] | 0.0044
73 | CCO[13C](C)=O [ethyl ethanoate-1-13C] | 0.071
74 | [2H]c1c([2H])c([2H])c(C([2H])([2H])C([2H])([2H])[2H])c([2H])c1[2H] [ethylbenzene-d10] | 0.002
75 | CCc1ccccc1 [ethylbenzene] | 0.002

Row | Compound | Henry solubility constant Hcp
76 | Fc1ccccc1 [fluorobenzene] | 0.0016
77 | ClC(Cl)=C(Cl)C(Cl)=C(Cl)Cl [hexachlorobutadiene] | 0.0023
78 | Fc1c(F)c(F)c(F)c(F)c1F [hexafluorobenzene] | 0.00055
79 | CI [iodomethane] | 0.0018
80 | COC(C)=O [methyl ethanoate] | 0.12
81 | C=C(C)C(=O)OC [methyl methacrylate] | 0.043
82 | [2H]c1c([2H])c([2H])c(C([2H])([2H])[2H])c([2H])c1[2H] [methylbenzene-d8] | 0.002
83 | Cc1ccccc1 [methylbenzene] | 0.0021
84 | [2H]C([2H])([2H])C1([2H])C([2H])([2H])C([2H])([2H])C([2H])([2H])C([2H])([2H])C1([2H])[2H] [methylcyclohexane-d14] | 0.00031
85 | CC1CCCCC1 [methylcyclohexane] | 0.00032
86 | [2H]c1c([2H])c([2H])c2c([2H])c([2H])c([2H])c([2H])c2c1[2H] [naphthalene-d8] | 0.035
87 | c1ccc2ccccc2c1 [naphthalene] | 0.033
88 | [2H]c1c([2H])c([2H])c([N+](=O)[O-])c([2H])c1[2H] [nitrobenzene-d5] | 0.85
89 | O=[N+]([O-])c1ccccc1 [nitrobenzene] | 0.64
90 | ClC(Cl)C(Cl)(Cl)Cl [pentachloroethane] | 0.0059
91 | Fc1cc(F)c(F)c(F)c1F [pentafluorobenzene] | 0.00075
92 | C[13C](C)=O [propanone-2-13C] | 0.31
93 | CCCc1ccccc1 [propylbenzene] | 0.0019
94 | ClC(Cl)=C(Cl)Cl [tetrachloroethene] | 0.00099
95 | ClC(Cl)(Cl)Cl [tetrachloromethane] | 0.0005
96 | Cl/C=C/CCl [trans-1,3-dichloropropene] | 0.0058
97 | BrC(Br)Br [tribromomethane] | 0.022
98 | ClC=C(Cl)Cl [trichloroethene] | 0.0012
99 | ClCc1ccccc1CCl [α,α-dichloro-o-xylene] | 0.1
